According to PubChem BioAssay AID179 (DTP/NCI, 2004):
The source made the active and inactive calls.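 Rule for the calls: active = compounds giving half or more protection of infected cells from virus-caused growth loss, again on retest; inactive = the rest.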

Tested on: CEM cells HIV-1 protection, formazan growth assay
Assay: NCI AIDS Antiviral Assay
Conditions: for IC50: measured here: growth of uninfected CEM cells
Outline: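 Protection of CEM cells against HIV-1 measured as cell growth via soluble formazan read-out, with five concentrations tested on both infected and uninfected cells; failure to protect may reflect toxicity.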

| SMILES | EC50 [µM] | IC50 [µM] | outcome |
| --- | --- | --- | --- |
| FC(F)(F)c1cc(C2SCc3nc4ccccc4n32)cc(C(F)(F)F)c1 (centres undefined) | > 41.7 | 7.08 |  |
| CCCC(=O)n1[nH]c(=O)n(-c2ccc(Cl)cc2)c1=O | > 200 | > 200 |  |
| CN(C(=O)C1=CCC2(CC1)OCCO2)c1ccccc1I | > 200 | > 200 |  |
| O=C1CC23CCCCCCCCCCC2(C1)CC(=O)C3 (centres undefined) |  |  | inactive |
| CCC1CN2CCc3cc(OC)c(OC)cc3C2CC1CC1c2cc(OC)c(OC)cc2CCN1C(=O)C1CCCN1 (centres undefined) |  |  | inactive |
| CC(C)=CCC1(c2ccccc2)Oc2ccccc2-n2cccc2C1=O (centres undefined) | > 200 | 138 |  |
| O=C(Nc1ccc(Oc2ccc(Cl)cc2)c(Cl)c1)c1cc(I)cc(I)c1O | > 200 | 11.5 |  |
| CSc1c(C(N)=O)c2c(N)ncnc2n1C1OC(CO)C(O)C1O (centres undefined) | > 2 | 1.02 |  |
| COc1ccc(NC(=S)NNC(=O)c2cc(-c3ccccc3)nc3ccccc23)cc1 | > 200 | 35.5 |  |
| NC(N)=NS(=O)(=O)c1ccc(NC(=O)c2ccc3nc4ccccc4c(Nc4ccc(S(N)(=O)=O)cc4)c3c2)cc1 | > 200 | 148 |  |
| CN1CCN(CCCN2c3ccccc3Sc3ccccc32)CC1 | > 741 | 33.1 |  |
| C=C1C2CCC3C(CCC4C5(C)CCCC43C3OCCN3C5)(C2)C1OC(C)=O (centres undefined) |  |  | inactive |
| O=C1c2ccccc2C(=O)c2c(NCCCNCCO)ccc(NCCCNCCO)c21 |  |  | inactive |
| O=C1c2cc([N+](=O)[O-])ccc2-c2c(S)cccc21 | > 200 | 50.1 |  |
| CC(=O)OCC1OC(n2ccc(-n3cncn3)nc2=O)CC1N=[N+]=[N-] (centres undefined) | 87.1 | > 200 |  |
| CC1=Nc2c(ccc3c2C(=O)c2ccccc2C3=O)NC(c2cccc3c2CCC3)C1 (centres undefined) | > 9.33 | > 9.33 |  |
| CCCCc1ccc(Nc2nc3c(ncn3C3OC(COC(C)=O)C(OC(C)=O)C3OC(C)=O)c(=O)[nH]2)cc1 (centres undefined) | > 200 | 11.7 |  |
| C/C=C(/CCCCOC1CCCCO1)[Si](C)(C)C (centres undefined) |  |  | inactive |
| CCC(Oc1c2ccoc2c(OC)c2oc(=O)cc(O)c12)C(=O)O (centres undefined) | > 269 | > 269 |  |
| COc1cc2c(cc1OC)C(Cc1ccc(Oc3cc(CC4c5cc(OC)c(OC)cc5CCN4C)ccc3O)cc1)N(C)CC2 (centres undefined) |  |  | inactive |

| SMILES | EC50 [µM] | IC50 [µM] | outcome |
| --- | --- | --- | --- |
| O=C1CS(=O)(=O)C2(CCCCC2)C(=O)N1 | > 200 | > 200 |  |
| O=C1CSC2=NCCN12 | > 200 | > 200 | inactive |
| CCOC(=O)NC(=O)c1cn(CCN2CCNCC2)c(=O)[nH]c1=O |  |  | inactive |
| COC(=O)CCC1=CCC2(SC)C(=O)Nc3cccc1c32 (centres undefined) | > 200 | > 200 |  |
| Cc1ccc(CS(=O)C(Cl)(Cl)c2ccc(C)cc2)cc1 (centres undefined) | > 41.7 | 15.5 |  |
| CN1c2ccccc2S(=O)(=O)n2c(CCc3ccccc3)nnc21 | > 105 | > 105 |  |
| CC1=C(C(=O)Nc2cccc(Cl)c2)C(c2ccccc2F)C(C(=O)Nc2cccc(Cl)c2)=C(C)N1 | > 14.1 | > 14.1 |  |
| CC1(C)OCC2OC3([C@@H]4OC(C)(C)O[C@H]4CO)OC(C)(C)OC3C2O1 (some centres undefined) | > 200 | > 200 |  |
| Cc1nc(C)c(N2CCN(C(=O)NC(CCC(=O)O)C(=O)O)CC2)c(=O)[nH]1 (centres undefined) | > 200 | > 200 |  |
| COc1ccc(C(=O)Cn2c(C(C)=O)nc3ccccc32)cc1 | > 200 | 2.45 |  |
| O=C(CCc1ccc(O)c(O)c1)OCCc1ccccc1 | > 200 | 6.61 |  |
| O=C(O)c1ccc(CS(=O)(=O)c2ccccc2C(=O)O)cc1 | > 776 | > 776 |  |
| N#CC1=C(N)n2c(s/c(=C\c3ccc(Cl)cc3)c2=O)=C(c2nc3ccccc3[nH]2)C1c1ccc(Cl)cc1 (centres undefined) | > 5.01 | > 5.01 |  |
| Nc1c(Br)cc(-c2cc(Br)c(N)c(Br)c2)cc1Br | > 200 | 138 |  |
| COC(=O)C1(Cc2ccccc2)Cc2cc3c(cc2C1)CCC3 | > 200 | 60.3 |  |
| CCOC(=O)c1nc2cc(F)c(F)cc2nc1NCc1cc(OC)c(OC)c(OC)c1 | > 100 | > 100 |  |
| CCCCCCCCCCCO/N=C\c1c2c(O)c3c(O)c(C)c4c(c3c1O)C(=O)C(C)(O/C=C\C(OC)C(C)C(OC(C)=O)C(C)C(O)C(C)C(O)C(C)/C=C\C=C(\C)C(=O)N2)O4 (centres undefined) | > 200 | 3.02 |  |
| O=C(Nc1ccc2c(O)c(N=Nc3ccc4c(O)cc(S(=O)(=O)O)cc4c3)c(S(=O)(=O)O)cc2c1)c1ccccc1 | 18.6 | 50.1 |  |
| COC(=O)C12C=CC(C(=O)OC)(CC1)n1c(=O)n(-c3ccccc3)c(=O)n12 | > 200 | > 200 |  |
| COc1ccc2c(=O)c([Se]c3coc4cc(OC)ccc4c3=O)coc2c1 | > 60.3 | > 60.3 |  |
